Laboratory results reported in PubChem BioAssay (NCI).
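48-hour exposure; five concentrations; linearly interpolated endpoints. Definition used: TGI = concentration required for complete inhibition of growth.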

Experiments:
Experiment in all cases: growth of human tumour cells (NCI), 48 h
[1] = system: 786-0 renal
[2] = system: HOP-92 NSCLC
[3] = system: HOP-18 NSCLC
[4] = system: DMS 273 small cell lung
[5] = system: LXFL 529 NSCLC
[6] = system: M19-MEL melanoma
[7] = system: RXF-631 renal
[8] = system: SNB-78 CNS
[9] = system: KM20L2 colon
[10] = system: DLD-1 colon
[11] = system: XF 498 CNS
[12] = system: DMS 114 small cell lung

CC(C)=CCC/C(C)=C/Cc1cc(/C=C/c2cc(O)c(CC=C(C)C)c(O)c2)cc(O)c1O
TGI [1]: 17 µM | TGI [2]: 15.6 µM

CCOC(=O)[C@H]1C[C@@H](C(=O)c2ccccc2)N2N=C(c3ccc(Br)cc3)C=C[C@H]12
TGI [1]: > 100 µM

CSc1nc(=S)[nH]c2n[nH]c(C)c12
TGI [1]: > 100 µM

N[C@@H]1C[C@H](N)c2c(Cl)sc(Cl)c21
TGI [1]: > 100 µM | TGI [2]: > 100 µM

Cc1nc2ccccc2nc1NS(=O)(=O)c1ccc(N)cc1
TGI [3]: > 100 µM | TGI [4]: > 100 µM | TGI [1]: > 100 µM | TGI [5]: > 100 µM | TGI [6]: > 100 µM | TGI [7]: > 100 µM | TGI [8]: > 100 µM | TGI [9]: > 100 µM | TGI [10]: > 100 µM | TGI [11]: > 100 µM | TGI [2]: > 100 µM

NN/C(=N\S(=O)(=O)c1cc(Cl)c(Oc2ccc([N+](=O)[O-])cc2Cl)c(Cl)c1)Nc1ccc(Cl)cc1
TGI [1]: 36.8 µM | TGI [2]: 38.9 µM

O=C(CCN(CCO)CCO)Nc1ccc2c(c1)C(=O)c1ccc(NC(=O)CCN(CCO)CCO)cc1C2=O
TGI [3]: > 100 µM | TGI [4]: 22.1 µM | TGI [12]: 19.6 µM | TGI [1]: 32 µM | TGI [5]: 16.2 µM | TGI [6]: 26.6 µM | TGI [8]: 54.8 µM | TGI [9]: > 100 µM | TGI [11]: 25 µM | TGI [2]: > 100 µM

CCC(=O)N(c1ccccc1)C(C)CN1CCC(O)(c2ccccc2)CC1 (centres undefined)
TGI [1]: > 100 µM | TGI [2]: > 100 µM

CCOC(=O)CCc1c(C(=O)OCC)[nH]c(/C=C2/NC(=O)C(C)=C2CC)c1C
TGI [1]: 46.2 µM | TGI [2]: 42.4 µM

Cc1ccc(-c2c(C#N)c(-c3ccc(N(C)C)cc3)c(C#N)c(=O)n2NS(=O)(=O)c2ccccc2)cc1
TGI [1]: > 100 µM | TGI [2]: > 100 µM

O=c1cc(-c2ccc(O)c(O)c2)oc2cc(OC3OC(CO)C(O)C(O)C3O)cc(O)c12 (centres undefined)
TGI [1]: > 100 µM | TGI [2]: > 100 µM

Cc1sc2ncnc(NCCc3ccccc3)c2c1C
TGI [1]: 45.7 µM | TGI [2]: 15.5 µM

CN(C)c1ccc(C2CC(=O)CC(c3ccc(N(C)C)cc3)C23C(=O)NC(=O)NC3=O)cc1 (centres undefined)
TGI [1]: > 25 µM | TGI [2]: 19 µM

COc1ccc(NS(=O)CCc2ccccc2)cc1 (centres undefined)
TGI [1]: > 100 µM

COC(=O)n1c(=O)nc2c3c(ncn21)Oc1c(c(-c2ccccc2)nn1-c1ccccc1)C3c1ccc(Cl)cc1 (centres undefined)
TGI [1]: 2.81 µM | TGI [2]: 3.39 µM

CCOc1ccc(NCC(=O)N2CC(=O)Nc3ccccc32)cc1
TGI [3]: > 100 µM | TGI [4]: > 100 µM | TGI [1]: > 100 µM | TGI [5]: > 100 µM | TGI [6]: > 100 µM | TGI [8]: > 100 µM | TGI [9]: > 100 µM | TGI [10]: > 100 µM | TGI [11]: > 100 µM | TGI [2]: > 100 µM

CCCCOC(=O)/C(CC(=O)C=C(C)C)=N\NS(=O)(=O)c1ccc(C)cc1
TGI [3]: > 100 µM | TGI [12]: > 100 µM | TGI [1]: > 100 µM | TGI [5]: > 100 µM | TGI [6]: > 100 µM | TGI [8]: > 100 µM | TGI [9]: > 100 µM | TGI [10]: > 100 µM | TGI [11]: > 100 µM | TGI [2]: > 100 µM

CCN(CC)CCCCC1CCN(CC(=O)N2c3ccccc3NC(=O)c3ccccc32)CC1
TGI [4]: > 100 µM | TGI [12]: > 100 µM | TGI [1]: > 100 µM | TGI [5]: > 100 µM | TGI [6]: > 100 µM | TGI [7]: > 100 µM | TGI [8]: > 100 µM | TGI [10]: > 100 µM | TGI [11]: > 100 µM | TGI [2]: > 100 µM
